In patent publication US20200087340A1, “LIF/LIFR ANTAGONIST IN ONCOLOGY AND NONMALIGNANT DISEASES” (Evestra, Inc., priority 2018, published 2020):

Tests used:
Format in all cases: cell-based, human
K-562 = assay: NCI-60 screening, Leukemia
EKVX = assay: NCI-60 screening, Non-Small Cell Lung Cancer
HOP-62 = assay: NCI-60 screening, Non-Small Cell Lung Cancer
NCI-H23 = assay: NCI-60 screening, Non-Small Cell Lung Cancer
COLO 205 = assay: NCI-60 screening, Colon Cancer
HCC-2998 = assay: NCI-60 screening, Colon Cancer
SW-620 = assay: NCI-60 screening, Colon Cancer
U251 = assay: NCI-60 screening, CNS Cancer
LOX IMVI = assay: NCI-60 screening, Melanoma
M14 = assay: NCI-60 screening, Melanoma
SK-MEL-5 = assay: NCI-60 screening, Melanoma
UACC-62 = assay: NCI-60 screening, Melanoma
OVCAR-3 = assay: NCI-60 screening, Ovarian Cancer
Procedure: (§1) EC 330 was also tested using the NCI-60 Screening Methodology. The human tumor cell lines of the cancer screening panel are grown in RPMI 1640 medium containing 5% fetal bovine serum and 2 mM L-glutamine. For a typical screening experiment, cells are inoculated into 96 well microtiter plates in 100 μL at plating densities ranging from 5,000 to 40,000 cells/well depending on the doubling time of individual cell lines. After cell inoculation, the microtiter plates are incubated at 37° C., 5% CO2, 95% air and 100% relative humidity for 24 h prior to addition of experimental drugs. […]
(§2) Following drug addition, the plates are incubated for an additional 48 h at 37° C., 5% CO2, 95% air, and 100% relative humidity. […] Bound stain is subsequently solubilized with 10 mM trizma base, and the absorbance is read on an automated plate reader at a wavelength of 515 nm. […] Using the seven absorbance measurements [time zero, (Tz), control growth, (C), and test growth in the presence of drug at the five concentration levels (Ti)], the percentage growth is calculated at each of the drug concentrations levels. Percentage growth inhibition is calculated as: […]
(§3) Three dose response parameters are calculated for each experimental agent. […] The drug concentration resulting in total growth inhibition (TGI) is calculated from Ti=Tz. […]

SK-OV-3 = assay: NCI-60 screening, Ovarian Cancer
PC-3 = assay: NCI-60 screening, Prostate Cancer
ACHN = assay: NCI-60 screening, Renal Cancer
HS 578T = assay: NCI-60 screening, Breast Cancer
MDA-MB-468 = assay: NCI-60 screening, Breast Cancer
Procedure: as §1, §2, §3

MCF-7 cells = assay: P53 / MDM2 levels in MCF-7 cells

C#CC(F)(F)[C@]1(O)CCC2C3CCC4=CC(=O)CCC4=C3C(c3ccc(C4CC4)cc3)C[C@@]21C (stereo partly drawn) [EC330, 17α-(1,1-difluoro-2-propyn-1-yl)-17β-hydroxy-11β-[4-p-(cyclopropyl)phenyl]estra-4,9-dien-3-one]
TGI (log10TGI) (K-562): >−4.00 | TGI (log10TGI) (EKVX): <−8.00 | TGI (log10TGI) (HOP-62): −6.79 | TGI (log10TGI) (NCI-H23): <−8.00 | TGI (log10TGI) (COLO 205): −5.53 | TGI (log10TGI) (HCC-2998): −4.37 | TGI (log10TGI) (SW-620): −4.79 | TGI (log10TGI) (U251): −5.78 | TGI (log10TGI) (LOX IMVI): <−8.00 | TGI (log10TGI) (M14): −4.45 | TGI (log10TGI) (SK-MEL-5): −4.79 | TGI (log10TGI) (UACC-62): −5.27 | TGI (log10TGI) (OVCAR-3): −6.85 | TGI (log10TGI) (SK-OV-3): −6.55 | TGI (log10TGI) (PC-3): −5.53 | TGI (log10TGI) (ACHN): −5.09 | TGI (log10TGI) (HS 578T): −4.99 | TGI (log10TGI) (MDA-MB-468): −6.09 | P53 levels / MDM2 (MCF-7 cells): restore P53 levels by inhibiting MDM2
